Source: patent publication US8323971B2, “Differentiation of pluripotent cells into primary germ layer progenitors” (Cambridge Enterprise Limited, priority 2006, dated 2012)

System: hESCs
Assay: Real time PCR of hESCs after addition of BMP4 in CDM (extra-embryonic differentiation)
Format: cell-based, human
Settings: 10 ng/ml in CDM
Experimental: hESCs grown in Feeder free and serum free conditions were harvested using 5 mg/ml collagenase IV then plated into plates pre-coated with fibronectin. hESCs were grown for 48 hours in CDM supplemented with Activin (10 ng/ml, RandD systems) and FGF2 (12 ng/ml, RandD systems). To induce extra-embryonic differentiation, hESCs were grown for 5 additional days in CDM supplemented with BMP4 (10 ng/ml, RandD systems). To obtain neuroectoderm progenitors, hESCs were grown in CDM or in CDM-PVA in the presence of SB431542 (10 μM Tocris) and FGF2 (12 ng/ml, RandD systems) for 7 additional days. The resulting cells were grown in non-adherent conditions for 10 days and then plated back for 5 additional days in CDM to obtain fully differentiated neuronal cells. To obtain mesendoderm precursors, hESCs were grown for 3 additional days in CDM-PVA in the presence of SU5402 (10 μM, Calbiochem) and Activin (5 ng/ml, RandD systems). On the fifth day after passaging, the resulting cells were grown in CDM-PVA in the presence of BMP4 (10 ng/ml, RandD systems), FGF2 (20 ng/ml, RandD systems) and Activin (30 ng/ml or 100 ng/ml, RandD systems).
Total RNAs were extracted from hESCs or differentiated progenitors using the RNeasy Mini or Micro Kits (Qiagen). Each sample was treated with RNAse-Free DNAse (Qiagen) in order to avoid DNA contamination. […]

Question: Which “expression of extra-embryonic markers including GATA6 and H19” value does the source give for “BMP4: Bone Morphogenetic Protein 4 growth factor” here?
Answer: strongly enhanced

Question: And the “level of Oct-4 transcripts” value (after 16 hours)?
Answer: significant decrease
